Data on four molecules can be found in article doi:10.1101/2024.02.28.582502, “Magnesium Transporter MgtA revealed as a Dimeric P-type ATPase” (bioRxiv, 2024).

A word on the stoichiometry N: it is the number of molecules, sites or subunits per partner or assembly.

The target of data set [1] is T1, MgtA (Escherichia coli, UniProt P0ABB8).
T1 construct: full length, 898 aa, 100 kDa; pETDuet-1-MgtAS (co-expressed with MgtS, no MgtS density seen), E. coli C43(DE3); Ni-NTA and SEC in GDN; predominantly homodimer for cryo-EM, predominantly monomer in DDM for HDX-MS
T1 sequence (P0ABB8 1-898): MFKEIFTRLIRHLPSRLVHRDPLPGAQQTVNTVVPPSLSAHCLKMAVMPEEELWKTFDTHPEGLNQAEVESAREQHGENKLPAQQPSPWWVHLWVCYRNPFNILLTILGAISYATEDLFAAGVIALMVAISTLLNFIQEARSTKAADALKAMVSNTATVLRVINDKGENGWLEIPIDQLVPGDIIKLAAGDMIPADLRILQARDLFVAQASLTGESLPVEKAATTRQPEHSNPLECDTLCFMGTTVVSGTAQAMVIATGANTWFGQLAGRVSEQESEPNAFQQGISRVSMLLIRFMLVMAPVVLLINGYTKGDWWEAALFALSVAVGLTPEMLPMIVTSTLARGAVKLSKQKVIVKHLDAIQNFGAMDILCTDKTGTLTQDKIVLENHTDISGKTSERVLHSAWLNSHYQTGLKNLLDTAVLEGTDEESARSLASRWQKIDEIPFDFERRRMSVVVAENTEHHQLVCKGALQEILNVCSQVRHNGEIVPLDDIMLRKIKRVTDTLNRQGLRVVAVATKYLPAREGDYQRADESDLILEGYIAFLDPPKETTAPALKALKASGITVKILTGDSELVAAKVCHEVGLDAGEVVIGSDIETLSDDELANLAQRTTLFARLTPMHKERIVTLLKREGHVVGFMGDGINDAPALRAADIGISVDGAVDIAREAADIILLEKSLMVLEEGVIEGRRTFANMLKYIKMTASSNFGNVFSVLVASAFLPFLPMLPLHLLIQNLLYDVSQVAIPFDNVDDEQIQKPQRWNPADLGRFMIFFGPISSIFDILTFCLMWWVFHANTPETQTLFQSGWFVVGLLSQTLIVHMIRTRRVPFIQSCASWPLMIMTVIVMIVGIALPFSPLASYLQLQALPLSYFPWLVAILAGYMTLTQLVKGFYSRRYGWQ
Kind of data set: cryo-EM map density ([…] Å), ligand not modelled. The following applies: 5 mM ADP, 5 mM MgCl2, pH 7.5, GDN, dimer, nucleotide binding site.

Data set [2] addresses T1, MgtA. Kind of data set: cryo-EM structure ([…] Å); HDX-MS. To be noted: cryo-EM: 5 mM ATP, 5 mM MgCl2, pH 7.5, GDN, dimer, nucleotide binding site; HDX-MS: 5 mM ATP, 5 mM MgSO4, DDM, mainly monomer.
Data set [3] addresses T1, MgtA. Put plainly: cryo-EM structure ([…] Å); HDX-MS. The following applies: cryo-EM: 5 mM ATPγS, 5 mM MgCl2, pH 7.5, GDN, dimer, nucleotide binding site; HDX-MS: 5 mM ATPγS, 5 mM MgSO4, DDM, mainly monomer.
Data set [4] concerns the molecule itself. Kind of data set: cryo-EM structure; single-particle cryo-EM of GDN-purified MgtA, 5 mM MgCl2, 0.007% GDN; without nucleotide or with 5 mM ATP, ATPγS or ADP.

For `Nc1ncnc2c1ncn2[C@@H]1O[C@H](COP(=O)(O)OP(=O)(O)O)[C@@H](O)[C@H]1O` [ADP], the “cryo-EM map density (3.75 Å), ligand not modelled” value in data set [1] is listed as “some ADP can enter the nucleotide binding pocket but cannot be bound as tightly”.

On to `Nc1ncnc2c1ncn2[C@@H]1O[C@H](COP(=O)(O)OP(=O)(O)OP(=O)(O)O)[C@@H](O)[C@H]1O` [ATP], for which, in data set [2], the “cryo-EM structure (3.72 Å); HDX-MS” value is “Cryo-EM structures of the MgtA dimer bound to the ligands ATP, ATPgS, and ADP”.

As for `Nc1ncnc2c1ncn2[C@@H]1O[C@H](COP(=O)(O)OP(=O)(O)OP(O)(O)=S)[C@@H](O)[C@H]1O` [ATPγS], in data set [3], the “cryo-EM structure (3.87 Å); HDX-MS” value was “MgtA with ATPγS, though resolved at slightly lower resolution, was structurally similar to MgtA with ATP”.

B1: Escherichia coli magnesium transporter MgtA (from pETDuet-1-MgtAS, co-overexpressed with MgtS) (natural protein)
chain: MFKEIFTRLIRHLPSRLVHRDPLPGAQQTVNTVVPPSLSAHCLKMAVMPEEELWKTFDTHPEGLNQAEVESAREQHGENKLPAQQPSPWWVHLWVCYRNPFNILLTILGAISYATEDLFAAGVIALMVAISTLLNFIQEARSTKAADALKAMVSNTATVLRVINDKGENGWLEIPIDQLVPGDIIKLAAGDMIPADLRILQARDLFVAQASLTGESLPVEKAATTRQPEHSNPLECDTLCFMGTTVVSGTAQAMVIATGANTWFGQLAGRVSEQESEPNAFQQGISRVSMLLIRFMLVMAPVVLLINGYTKGDWWEAALFALSVAVGLTPEMLPMIVTSTLARGAVKLSKQKVIVKHLDAIQNFGAMDILCTDKTGTLTQDKIVLENHTDISGKTSERVLHSAWLNSHYQTGLKNLLDTAVLEGTDEESARSLASRWQKIDEIPFDFERRRMSVVVAENTEHHQLVCKGALQEILNVCSQVRHNGEIVPLDDIMLRKIKRVTDTLNRQGLRVVAVATKYLPAREGDYQRADESDLILEGYIAFLDPPKETTAPALKALKASGITVKILTGDSELVAAKVCHEVGLDAGEVVIGSDIETLSDDELANLAQRTTLFARLTPMHKERIVTLLKREGHVVGFMGDGINDAPALRAADIGISVDGAVDIAREAADIILLEKSLMVLEEGVIEGRRTFANMLKYIKMTASSNFGNVFSVLVASAFLPFLPMLPLHLLIQNLLYDVSQVAIPFDNVDDEQIQKPQRWNPADLGRFMIFFGPISSIFDILTFCLMWWVFHANTPETQTLFQSGWFVVGLLSQTLIVHMIRTRRVPFIQSCASWPLMIMTVIVMIVGIALPFSPLASYLQLQALPLSYFPWLVAILAGYMTLTQLVKGFYSRRYGWQ
notes: MgtA, E. coli, P-type ATPase Mg2+ transporter, 100 kDa, 898 amino acids; residues from the N-terminal tail (1-36) on are modelled in the dimer structure; That the His tag stands on MgtA is inferred from its elution from Ni-NTA; also called EcMgtA; MgtAS (the purified sample); source: E. coli C43 (DE3), pETDuet-1-MgtAS, co-overexpressed with MgtS; membranes solubilised with 1% GDN (or DDM, LMNG); …
For the molecule B1, the “stoichiometry N” value in data set [4] is 2.
